Test results as given in ChEMBL document CHEMBL4507263, “Data for DCP probe BAY-474” (2021).

What was measured:
[1] = biological target: L-type calcium channel, dihydropyridine site (Cav1.2 alpha-1C) (Homo sapiens, UniProt Q13936); test: Inhibition of Calcium Channel L-Type, Dihydropyridine at 10 µM in the Eurofins-Panlabs radioligand binding assay (Eurofins_assay_214600); design: ligand concentration 0.1 nM, non-specific ligand with concentration 1 µM Nitrendipine, incubation time 90 min, incubation temperature 25 °C; settings: Wistar, rat, rat cerebral cortex preparation, probe [3H] Nitrendipine; compound concentration 10 uM; target entry is the homologue from another species
[2] = biological target: Histamine H1 receptor (Homo sapiens) (UniProt P35367); settings: Compound concentration 10.0 uM
Chain of Histamine H1 receptor (Homo sapiens) (P35367 whole entry): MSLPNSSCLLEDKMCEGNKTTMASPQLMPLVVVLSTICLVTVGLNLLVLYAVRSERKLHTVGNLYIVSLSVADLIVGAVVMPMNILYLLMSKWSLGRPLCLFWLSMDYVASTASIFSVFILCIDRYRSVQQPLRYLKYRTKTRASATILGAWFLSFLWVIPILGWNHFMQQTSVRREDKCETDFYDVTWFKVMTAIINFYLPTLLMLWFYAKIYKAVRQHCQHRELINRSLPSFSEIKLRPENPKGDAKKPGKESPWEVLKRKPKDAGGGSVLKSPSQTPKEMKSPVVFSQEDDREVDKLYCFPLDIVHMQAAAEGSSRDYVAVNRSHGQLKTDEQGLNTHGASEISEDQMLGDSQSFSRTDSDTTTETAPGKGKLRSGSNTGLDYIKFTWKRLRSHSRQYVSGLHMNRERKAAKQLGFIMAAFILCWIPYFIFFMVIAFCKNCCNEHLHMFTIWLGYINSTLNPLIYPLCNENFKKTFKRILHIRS

[3] = biological target: Serine/threonine-protein kinase SIK1 (Homo sapiens) (UniProt P57059); test: SIK (h) Millipore kinase activity assay; settings: Compound concentration 1.0 uM
[4] = biological target: Sigma non-opioid intracellular receptor 1 (Homo sapiens) (UniProt Q99720); test: Sigma 1 Eurofins-Panlabs radioligand binding assay; design: ligand concentration 8 nM; settings: Compound concentration 10.0 uM
[5] = biological target: Mitogen-activated protein kinase 14 (Homo sapiens) (UniProt Q16539); test: SAPK2a (h) Millipore kinase activity assay; settings: Compound concentration 1.0 uM
[6] = biological target: Death-associated protein kinase 1 (Homo sapiens) (UniProt P53355); test: DAPK1 (h) Millipore kinase activity assay; settings: Compound concentration 1.0 uM
Chain of Death-associated protein kinase 1 (Homo sapiens) (P53355 whole entry, looked up): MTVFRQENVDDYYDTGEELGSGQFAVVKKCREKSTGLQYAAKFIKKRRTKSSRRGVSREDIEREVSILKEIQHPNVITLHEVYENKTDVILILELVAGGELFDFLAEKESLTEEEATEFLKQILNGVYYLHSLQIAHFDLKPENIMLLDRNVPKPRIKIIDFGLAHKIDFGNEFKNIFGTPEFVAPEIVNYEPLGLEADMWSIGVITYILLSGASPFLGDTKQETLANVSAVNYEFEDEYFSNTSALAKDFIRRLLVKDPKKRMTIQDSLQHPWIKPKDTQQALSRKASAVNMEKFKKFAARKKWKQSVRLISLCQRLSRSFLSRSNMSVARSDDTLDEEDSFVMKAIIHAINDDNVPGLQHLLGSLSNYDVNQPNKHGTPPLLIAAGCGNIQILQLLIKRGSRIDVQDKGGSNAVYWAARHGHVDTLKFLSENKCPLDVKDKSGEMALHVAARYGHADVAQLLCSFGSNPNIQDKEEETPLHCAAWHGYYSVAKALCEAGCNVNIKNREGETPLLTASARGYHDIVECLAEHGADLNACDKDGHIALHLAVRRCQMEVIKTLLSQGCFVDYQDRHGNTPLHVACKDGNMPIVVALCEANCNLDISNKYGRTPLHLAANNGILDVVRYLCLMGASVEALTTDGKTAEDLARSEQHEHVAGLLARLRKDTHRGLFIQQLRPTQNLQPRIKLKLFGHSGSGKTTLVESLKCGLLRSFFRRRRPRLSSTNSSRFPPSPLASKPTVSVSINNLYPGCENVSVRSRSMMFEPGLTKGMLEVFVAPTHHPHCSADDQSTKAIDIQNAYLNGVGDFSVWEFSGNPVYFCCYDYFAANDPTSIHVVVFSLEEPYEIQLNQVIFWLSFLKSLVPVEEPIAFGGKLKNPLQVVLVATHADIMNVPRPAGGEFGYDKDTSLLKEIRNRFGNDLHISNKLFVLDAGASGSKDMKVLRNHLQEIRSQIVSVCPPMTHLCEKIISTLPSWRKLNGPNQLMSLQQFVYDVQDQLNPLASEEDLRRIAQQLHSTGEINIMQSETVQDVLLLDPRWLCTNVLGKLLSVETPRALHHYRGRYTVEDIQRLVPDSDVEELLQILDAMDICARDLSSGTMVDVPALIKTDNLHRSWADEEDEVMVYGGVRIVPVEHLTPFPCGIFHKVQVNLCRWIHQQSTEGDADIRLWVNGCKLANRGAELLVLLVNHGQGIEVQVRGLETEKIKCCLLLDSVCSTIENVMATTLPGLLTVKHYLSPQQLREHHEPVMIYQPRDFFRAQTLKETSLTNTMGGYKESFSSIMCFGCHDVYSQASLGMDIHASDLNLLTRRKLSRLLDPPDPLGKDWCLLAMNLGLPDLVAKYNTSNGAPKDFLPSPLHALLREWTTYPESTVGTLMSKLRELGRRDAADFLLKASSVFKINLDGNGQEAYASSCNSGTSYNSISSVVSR

[7] = biological target: Mitogen-activated protein kinase 1 (Homo sapiens) (UniProt P28482); test: MAPK2( h) Millipore kinase activity assay; settings: Compound concentration 1.0 uM
[8] = biological target: Cyclin-dependent kinase 1/cyclin B (Homo sapiens) (UniProt P06493+P14635+Q8WWL7+O95067); test: CDK1/cyclinB( h) Millipore kinase activity assay; type: protein-complex assay; settings: Compound concentration 1.0 uM
[9] = biological target: T1, 5-hydroxytryptamine receptor 1A (Homo sapiens) (UniProt P08908); settings: Compound concentration 10.0 uM
T1 sequence (whole entry): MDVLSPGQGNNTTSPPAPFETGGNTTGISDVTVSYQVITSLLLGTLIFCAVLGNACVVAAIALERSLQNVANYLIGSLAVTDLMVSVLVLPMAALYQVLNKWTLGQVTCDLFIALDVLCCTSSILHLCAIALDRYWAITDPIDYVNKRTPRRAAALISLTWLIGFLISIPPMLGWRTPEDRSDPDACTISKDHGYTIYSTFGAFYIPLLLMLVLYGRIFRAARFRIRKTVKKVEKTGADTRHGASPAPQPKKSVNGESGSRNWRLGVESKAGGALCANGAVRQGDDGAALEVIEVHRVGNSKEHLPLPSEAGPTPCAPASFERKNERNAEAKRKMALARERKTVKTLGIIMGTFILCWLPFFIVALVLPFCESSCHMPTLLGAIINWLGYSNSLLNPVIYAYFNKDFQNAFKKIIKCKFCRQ

[10] = biological target: Proto-oncogene tyrosine-protein kinase Src (Homo sapiens) (UniProt P12931); test: cSRC (h) Millipore kinase activity assay; settings: Compound concentration 1.0 uM
[11] = biological target: Tyrosine-protein kinase Lyn (Homo sapiens) (UniProt P07948); test: Lyn (h) Millipore kinase activity assay; settings: Compound concentration 1.0 uM
[12] = biological target: Tyrosine-protein kinase Mer (Homo sapiens) (UniProt Q12866); settings: Compound concentration 1000.0 nM
Chain of Tyrosine-protein kinase Mer (Homo sapiens) (Q12866 whole entry): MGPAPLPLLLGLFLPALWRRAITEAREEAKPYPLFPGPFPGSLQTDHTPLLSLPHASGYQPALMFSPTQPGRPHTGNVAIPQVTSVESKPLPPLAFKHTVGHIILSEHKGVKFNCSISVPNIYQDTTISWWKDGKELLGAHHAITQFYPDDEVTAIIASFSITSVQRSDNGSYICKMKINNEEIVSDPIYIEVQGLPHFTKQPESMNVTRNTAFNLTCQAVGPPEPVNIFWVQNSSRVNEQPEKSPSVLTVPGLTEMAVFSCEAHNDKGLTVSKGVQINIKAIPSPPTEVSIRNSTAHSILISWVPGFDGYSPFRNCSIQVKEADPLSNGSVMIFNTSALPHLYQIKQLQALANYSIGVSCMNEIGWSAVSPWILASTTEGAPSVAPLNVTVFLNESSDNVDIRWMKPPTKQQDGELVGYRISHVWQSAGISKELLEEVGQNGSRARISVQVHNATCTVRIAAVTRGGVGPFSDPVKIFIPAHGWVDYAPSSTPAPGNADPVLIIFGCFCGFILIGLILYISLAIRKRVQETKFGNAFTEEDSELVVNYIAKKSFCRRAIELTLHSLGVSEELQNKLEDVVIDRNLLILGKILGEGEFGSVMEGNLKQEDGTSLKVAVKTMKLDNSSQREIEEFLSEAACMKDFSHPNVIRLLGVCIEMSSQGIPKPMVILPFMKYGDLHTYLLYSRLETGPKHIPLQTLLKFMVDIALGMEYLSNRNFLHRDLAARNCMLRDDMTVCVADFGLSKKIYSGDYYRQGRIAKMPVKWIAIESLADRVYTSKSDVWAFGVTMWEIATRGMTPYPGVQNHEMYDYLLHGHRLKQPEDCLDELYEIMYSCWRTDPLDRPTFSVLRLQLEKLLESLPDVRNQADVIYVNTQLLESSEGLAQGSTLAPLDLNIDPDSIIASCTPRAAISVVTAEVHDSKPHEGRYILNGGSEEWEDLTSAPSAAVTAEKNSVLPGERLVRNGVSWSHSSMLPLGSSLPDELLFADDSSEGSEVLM

[13] = biological target: Serine/threonine-protein kinase/endoribonuclease IRE1 (Homo sapiens) (UniProt O75460); settings: Compound concentration 1000.0 nM
[14] = biological target: Serine/threonine-protein kinase TAO2 (Homo sapiens) (UniProt Q9UL54); settings: Compound concentration 1000.0 nM
Chain of Serine/threonine-protein kinase TAO2 (Homo sapiens) (Q9UL54 whole entry): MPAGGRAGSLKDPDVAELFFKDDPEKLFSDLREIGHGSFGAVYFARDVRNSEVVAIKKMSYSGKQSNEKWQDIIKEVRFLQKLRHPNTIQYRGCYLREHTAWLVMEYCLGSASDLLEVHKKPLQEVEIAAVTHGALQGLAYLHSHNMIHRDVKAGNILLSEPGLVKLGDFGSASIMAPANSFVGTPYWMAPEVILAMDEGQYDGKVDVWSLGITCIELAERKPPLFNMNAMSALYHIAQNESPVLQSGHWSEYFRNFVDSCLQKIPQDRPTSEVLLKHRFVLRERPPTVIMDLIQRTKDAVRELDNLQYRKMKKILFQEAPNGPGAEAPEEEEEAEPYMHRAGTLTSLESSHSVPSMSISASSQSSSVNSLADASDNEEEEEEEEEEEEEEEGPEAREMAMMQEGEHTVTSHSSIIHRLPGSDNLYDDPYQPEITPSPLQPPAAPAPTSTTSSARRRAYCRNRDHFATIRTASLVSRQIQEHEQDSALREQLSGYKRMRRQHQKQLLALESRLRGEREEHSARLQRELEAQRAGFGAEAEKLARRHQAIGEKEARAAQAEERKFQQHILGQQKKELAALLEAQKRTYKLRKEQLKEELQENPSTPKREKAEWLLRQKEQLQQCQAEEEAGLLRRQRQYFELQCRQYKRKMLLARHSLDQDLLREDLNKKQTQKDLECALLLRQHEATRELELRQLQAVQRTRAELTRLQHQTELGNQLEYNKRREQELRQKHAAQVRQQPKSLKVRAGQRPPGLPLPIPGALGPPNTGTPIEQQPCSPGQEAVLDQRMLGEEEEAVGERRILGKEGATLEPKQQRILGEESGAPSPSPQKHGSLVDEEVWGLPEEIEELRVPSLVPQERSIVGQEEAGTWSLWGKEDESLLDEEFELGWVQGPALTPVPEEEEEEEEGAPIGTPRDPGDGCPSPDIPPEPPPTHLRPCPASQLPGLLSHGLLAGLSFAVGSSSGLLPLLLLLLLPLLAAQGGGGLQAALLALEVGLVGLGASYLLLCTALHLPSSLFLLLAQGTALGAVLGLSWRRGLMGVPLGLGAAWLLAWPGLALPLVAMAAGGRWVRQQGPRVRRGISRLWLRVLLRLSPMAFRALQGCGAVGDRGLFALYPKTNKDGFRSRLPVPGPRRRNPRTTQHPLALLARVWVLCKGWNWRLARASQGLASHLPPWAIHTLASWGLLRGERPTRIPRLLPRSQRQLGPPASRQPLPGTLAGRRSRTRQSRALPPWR

[15] = biological target: Wee1-like protein kinase 2 (Homo sapiens) (UniProt P0C1S8); settings: Compound concentration 1000.0 nM
[16] = biological target: 5-hydroxytryptamine receptor 2B (Homo sapiens) (UniProt P41595); settings: Compound concentration 10.0 uM
[17] = biological target: Glycogen synthase kinase-3 alpha (Homo sapiens) (UniProt P49840); settings: Compound concentration 1000.0 nM
[18] = biological target: Serine/threonine-protein kinase 32C (Homo sapiens) (UniProt Q86UX6); settings: Compound concentration 1000.0 nM
[19] = biological target: Microtubule-associated serine/threonine-protein kinase 1 (Homo sapiens) (UniProt Q9Y2H9); settings: Compound concentration 1000.0 nM
[20] = biological target: Serine/threonine-protein kinase TBK1 (Homo sapiens) (UniProt Q9UHD2); settings: Compound concentration 1000.0 nM
[21] = biological target: Mitogen-activated protein kinase kinase kinase 7 (Homo sapiens) (UniProt O43318); settings: Compound concentration 1000.0 nM
[22] = biological target: Tyrosine-protein kinase SYK (Homo sapiens) (UniProt P43405); settings: Compound concentration 1000.0 nM
[23] = biological target: Tyrosine-protein kinase Yes (Homo sapiens) (UniProt P07947); settings: Compound concentration 1000.0 nM
[24] = tested on: Tyrosine-protein kinase ABL1 (Homo sapiens), P00519 [F317L]; settings: Compound concentration 1000.0 nM
[25] = biological target: Cyclin-dependent kinase 15 (Homo sapiens) (UniProt Q96Q40); settings: Compound concentration 1000.0 nM
[26] = biological target: Protein kinase C epsilon type (Homo sapiens) (UniProt Q02156); settings: Compound concentration 1000.0 nM
[27] = biological target: Cyclin-G-associated kinase (Homo sapiens) (UniProt O14976); settings: Compound concentration 1000.0 nM
[28] = biological target: 5-hydroxytryptamine receptor 1D (Homo sapiens) (UniProt P28221); settings: Compound concentration 10.0 uM
[29] = biological target: Serine/threonine-protein kinase PAK 3 (Homo sapiens) (UniProt O75914); settings: Compound concentration 1000.0 nM
[30] = biological target: Mitogen-activated protein kinase kinase kinase 13 (Homo sapiens) (UniProt O43283); settings: Compound concentration 1000.0 nM
[31] = biological target: Dual specificity mitogen-activated protein kinase kinase 5 (Homo sapiens) (UniProt Q13163); settings: Compound concentration 1000.0 nM
[32] = biological target: Serine/threonine-protein kinase N2 (Homo sapiens) (UniProt Q16513); settings: Compound concentration 1000.0 nM
[33] = biological target: Serine/threonine-protein kinase Nek9 (Homo sapiens) (UniProt Q8TD19); settings: Compound concentration 1000.0 nM
[34] = biological target: Mitogen-activated protein kinase kinase kinase 10 (Homo sapiens) (UniProt Q02779); settings: Compound concentration 1000.0 nM
[35] = biological target: Mitogen-activated protein kinase kinase kinase 11 (Homo sapiens) (UniProt Q16584); settings: Compound concentration 1000.0 nM
Chain of Mitogen-activated protein kinase kinase kinase 11 (Homo sapiens) (Q16584 whole entry, looked up): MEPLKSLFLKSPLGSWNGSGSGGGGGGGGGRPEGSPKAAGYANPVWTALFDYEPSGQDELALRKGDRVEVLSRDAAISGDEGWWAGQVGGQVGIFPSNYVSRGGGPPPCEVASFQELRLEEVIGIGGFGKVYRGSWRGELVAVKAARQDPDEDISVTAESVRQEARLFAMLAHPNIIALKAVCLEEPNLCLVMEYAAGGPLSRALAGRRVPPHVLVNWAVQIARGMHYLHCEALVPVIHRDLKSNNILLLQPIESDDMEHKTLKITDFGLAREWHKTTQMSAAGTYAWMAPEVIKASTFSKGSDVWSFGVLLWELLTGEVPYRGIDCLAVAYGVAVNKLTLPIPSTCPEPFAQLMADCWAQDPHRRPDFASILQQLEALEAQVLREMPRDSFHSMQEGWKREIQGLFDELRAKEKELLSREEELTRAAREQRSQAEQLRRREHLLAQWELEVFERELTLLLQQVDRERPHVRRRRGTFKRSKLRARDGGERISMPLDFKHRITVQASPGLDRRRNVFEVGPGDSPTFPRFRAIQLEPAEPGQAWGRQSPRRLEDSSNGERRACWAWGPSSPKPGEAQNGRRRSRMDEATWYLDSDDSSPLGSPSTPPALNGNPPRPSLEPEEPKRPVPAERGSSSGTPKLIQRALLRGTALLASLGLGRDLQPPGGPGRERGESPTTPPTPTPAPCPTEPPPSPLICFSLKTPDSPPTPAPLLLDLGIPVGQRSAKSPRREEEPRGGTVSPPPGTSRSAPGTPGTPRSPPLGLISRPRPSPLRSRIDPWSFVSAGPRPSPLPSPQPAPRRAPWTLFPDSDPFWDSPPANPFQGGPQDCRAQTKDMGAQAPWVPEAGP

[36] = biological target: GABA-A receptor; anion channel (Rattus norvegicus) (UniProt O09028+P15431+P18506+P18508+P19969+P20236+P23574+P23576+P28471+P28473+P30191+P62813+P63079+P63138+Q91ZM7+Q9ES14); settings: Compound concentration 10.0 uM
[37] = biological target: Serine/threonine-protein kinase PAK 1 (Homo sapiens) (UniProt Q13153); settings: Compound concentration 1000.0 nM

CC1=C(C#N)C(c2ccc3[nH]nc(C)c3c2)C(C#N)=C(C)N1 [BAY-474]
0% (not active): inhibition at 90 min, 10 µM [1]
inactive: inhibition [2] 17.7% | inhibition [3] -7% | inhibition [4] 15% | inhibition [5] 3% | inhibition [6] 0% | inhibition [7] 4% | inhibition [8] 16% | inhibition [9] -9% | inhibition [10] 8% | inhibition [11] -1%

CC1=C(C#N)[C@@H](c2ccc3[nH]nc(C)c3c2)C(C#N)=C(c2ccc(Cl)cc2)N1 [BAY-827]
active: residual activity [31] 49.9%
inactive: residual activity [12] 100% | residual activity [13] 100% | residual activity [14] 100% | residual activity [15] 100% | inhibition [16] -7.44% | residual activity [17] 100% | residual activity [18] 91.2% | residual activity [19] 100% | residual activity [20] 58.7% | residual activity [21] 100% | residual activity [22] 100% | residual activity [23] 100% | residual activity [24] 100% | residual activity [25] 75.4% | residual activity [26] 100% | residual activity [27] 100% | inhibition [28] 4.2% | residual activity [29] 100% | residual activity [30] 100% | residual activity [32] 74.6% | residual activity [33] 95.6% | residual activity [34] 100% | residual activity [35] 100% | inhibition [36] -7.24% | residual activity [37] 100%
